From patent publication US20260124191A1, “HISTONE DEACETYLASE INHIBITOR AND USES THEREOF” (NANJING HONGSHUN PHARMACEUTICAL TECHNOLOGY CO., LTD, priority 2023, published 2026)

Assays:
[1] = tested on: HDAC; test: HDAC inhibitory activity assay (FRET); assay type: biochemical; conditions: for IC50: HDAC, FRET, read-out: Half-maximal inhibitory concentration (IC50 ± SD); for Inhibition rate: test concentration 100 nM, relative to DMSO control
Description: The HDAC inhibitory activity of the synthesized compounds was determined by fluorescence resonance energy transfer (FRET), and then compared with that of the positive control to screen out compounds with better activity. HDAC was obtained by purification or purchased directly.
The method was as follows.
An enzyme was added to reaction wells, a reaction buffer was added to control wells, a sample dissolved in DMSO was added to the reaction wells, and the wells were incubated using a contactless nanoflow sonic pipetting system (Ech-550; nanoflow). A fluorescent substrate was added to each reaction well and then rotated and shaken. The wells were incubated for 1-2 h at 30° C. under a sealed condition. A TMP26-containing chromogenic agent was added to terminate the reaction and produce fluorescence. The fluorescence intensity was detected using En Vision multi-label microplate detector (Perkin Elmer) (excitation light: 490 nm, emitted light: 520 nm). After the stabilization of color development, the endpoint value was read. The percentage (relative to the DMSO control group) inhibition rate was calculated using the software GraphPad Prism 4.

[2] = tested on: human breast cancer cells MCF7; test: In vitro anti-tumor activity, MTT method; assay type: cell-based; conditions: Homo sapiens, MCF7, 96 h, MCF-7, MTT, 96-hour treatment
Description: (§1) The inhibitory effects of the compounds against human non-small cell lung cancer cell lines A549, NCI-H1650, human small cell lung cancer cell lines H446, human prostate cancer cells DU145, PC-3, LNCAP, human colon cancer cells lines HCT116, human breast cancer cells MDA-MB-231, and MCF7 tumor cell lines were determined using the MTT method.
(§2) The method was as follows. The cells in the exponential growth phase were collected to count living cells. The concentration of the cell suspension was adjusted using the corresponding medium of each group of cells. The cell suspension was added to the 96-well culture plate at 100 μL per cell, and the plate was placed in a 5% CO2 incubator at 37° C. and incubated for 24 h. Each test compound was dissolved in DMSO to prepare a stock solution with a corresponding concentration. Then, each stock solution was diluted 500-fold with the medium to prepare 4 replicate wells. 100 μL of the corresponding 500-fold solution was added to each well per cell line, with the final DMSO concentration of 0.1%. […] The half-maximal (relative to the DMSO control group) inhibition rate was calculated using the software GraphPad Prism 4.

[3] = tested on: human breast cancer cells MDA-MB-231; test: In vitro anti-tumor activity, MTT method; assay type: cell-based; conditions: MDA-MB-231, MTT, 96-hour treatment, read-out: Antiproliferative Activity (IC50 ± SD, μM) MDA-MB-231
Description: as §1, §2

[4] = tested on: human colon cancer cell line HCT116; test: In vitro anti-tumor activity, MTT method; assay type: cell-based; conditions: HCT-116, 96-hour treatment, read-out: Antiproliferative Activity (IC50 ± SD, μM) HCT116
Description: as §1, §2

[5] = tested on: human non-small cell lung cancer cell line A549; test: In vitro anti-tumor activity, MTT method; assay type: cell-based; conditions: Homo sapiens, A549, 96 h, 96-hour treatment
Description: as §1, §2

[6] = tested on: human non-small cell lung cancer cell line NCI-H1650; test: In vitro anti-tumor activity, MTT method; assay type: cell-based; conditions: 96-hour treatment, read-out: Antiproliferative Activity (IC50 ± SD, μM) H1650
Description: as §1, §2

[7] = tested on: human prostate cancer cells DU145; test: In vitro anti-tumor activity, MTT method; assay type: cell-based; conditions: Homo sapiens, DU-145, 96 h, 96-hour treatment
Description: as §1, §2

[8] = tested on: human prostate cancer cells LNCAP; test: In vitro anti-tumor activity, MTT method; assay type: cell-based; conditions: 96-hour treatment, read-out: Antiproliferative Activity (IC50 ± SD, μM) LNCAP
Description: as §1, §2

[9] = tested on: human prostate cancer cells PC-3; test: In vitro anti-tumor activity, MTT method; assay type: cell-based; conditions: Homo sapiens, 96 h, PC-3, MTT, 96-hour treatment
Description: as §1, §2

[10] = tested on: human small cell lung cancer cell line H446; test: In vitro anti-tumor activity, MTT method; assay type: cell-based; conditions: NCI-H446, 96-hour treatment, read-out: Antiproliferative Activity (IC50 ± SD, μM) H446
Description: as §1, §2

[11] = tested on: HT29; test: In vitro anti-tumor activity, MTT method; assay type: cell-based; conditions: Homo sapiens, HT-29, 96-hour treatment, read-out: Antiproliferative Activity (IC50 ± SD, μM) HT29

| SMILES | IC50 [1] [nM] | IC50 [2] [nM] | IC50 [3] [µM] | IC50 [4] [µM] | IC50 [5] [nM] | IC50 [6] [µM] | IC50 [7] [nM] | IC50 [8] [µM] | IC50 [9] [nM] | IC50 [10] [µM] | IC50 [11] [µM] | Inhibition rate [1] |
| --- | --- | --- | --- | --- | --- | --- | --- | --- | --- | --- | --- | --- |
| O=C(CCCCCCN1C(=O)C/C(=C\c2cccc(Cl)c2)C1=O)NO [Example I-25, (E)-7-(3-(3-chlorobenzal)-2,5-diketopyrrolidinyl)-N-hydroxyheptamide] |  | 1050 ± 240 | 2.05 ± 0.2 | 0.81 ± 0.06 | 1120 ± 200 | 7.3 ± 0.56 | 380 ± 40 | 1.95 ± 0.21 | 1700 ± 80 | 0.78 ± 0.04 | 1.3 ± 0.1 | 91.2% ± 0.7% |
| O=C(CCCCCCN1C(=O)C/C(=C\c2ccccc2)C1=O)NO [Example I-4] | 12.9 ± 0.1 | 1430 ± 60 | 0.67 ± 0.1 | 0.75 ± 0.08 | 1320 ± 170 | 6.12 ± 0.88 | 500 ± 70 | 1.63 ± 0.24 | 820 ± 70 | 0.57 ± 0.03 | 1.76 ± 0.25 |  |
| CCOc1ccccc1/C=C1\CC(=O)N(CCCCCCC(=O)NO)C1=O [Example I-38, (E)-7-(3-(2-ethoxybenzal)-2,5-diketopyrrolidinyl)-N-hydroxyheptamide] | 16.7 ± 0.21 | 510 ± 70 |  |  | 1780 ± 200 |  | 340 ± 40 |  | 890 ± 50 |  |  |  |
| O=C(CCCCCCN1C(=O)C/C(=C\c2ccc(Cl)cc2)C1=O)NO [Example I-26, (E)-7-(3-(4-chlorobenzal)-2,5-diketopyrrolidinyl)-N-hydroxyheptamide] |  | 690 ± 90 |  |  | 2200 ± 260 |  | 570 ± 40 |  | 890 ± 120 |  |  | 86.6% ± 0.4% |
| CN(C)c1ccc(/C=C2\CC(=O)N(CCCCCCC(=O)NO)C2=O)cc1 [Example I-16, (E)-7-(3-(4-dimethylaminobenzal)-2,5-diketopyrrolidinyl)-N-hydroxyheptamide] |  | 1160 ± 120 |  |  | 2240 ± 80 |  | 920 ± 30 |  | 1750 ± 120 |  |  | 93.3% ± 1.0% |
| CC(C)c1ccc(/C=C2\CC(=O)N(CCCCCCC(=O)NO)C2=O)cc1 [Example I-15, (E)-7-(3-(4-isopropylbenzal)-2,5-diketopyrrolidinyl)-N-hydroxyheptamide] |  | 1660 ± 140 |  |  | 3680 ± 500 |  | 1350 ± 270 |  | 1820 ± 160 |  |  | 81.4% ± 0.5% |
| COc1ccc(/C=C2\CC(=O)N(CCCCCCC(=O)NO)C2=O)cc1 [Example I-33, (E)-7-(3-(4-methoxybenzal)-2,5-diketopyrrolidinyl)-N-hydroxyheptamide] | 13 ± 0.02 | 1020 ± 110 |  |  | 1520 ± 140 |  | 500 ± 100 |  | 890 ± 100 |  |  |  |

Continued by falling IC50 [2], values first:

| IC50 [1] [nM] | IC50 [2] [nM] | IC50 [3] [µM] | IC50 [4] [µM] | IC50 [5] [nM] | IC50 [6] [µM] | IC50 [7] [nM] | IC50 [8] [µM] | IC50 [9] [nM] | IC50 [10] [µM] | IC50 [11] [µM] | SMILES | Inhibition rate [1] |
| --- | --- | --- | --- | --- | --- | --- | --- | --- | --- | --- | --- | --- |
|  | 1380 ± 120 |  |  | 5090 ± 230 |  | 910 ± 70 |  | 1470 ± 150 |  |  | O=C(CCCCCCN1C(=O)C/C(=C\c2cccc(I)c2)C1=O)NO [Example I-29, (E)-7-(3-(3-iodobenzal)-2,5-diketopyrrolidinyl)-N-hydroxyheptamide] | 91.3% ± 0.7% |
|  | 980 ± 20 | 0.98 ± 0.11 | 0.91 ± 0.11 | 1800 ± 140 | 4.42 ± 0.72 | 340 ± 30 | 1.48 ± 0.2 | 1290 ± 140 | 0.7 ± 0.1 | 1.69 ± 0.1 | O=C(CCCCCCN1C(=O)C/C(=C\c2ccc3ccccc3c2)C1=O)NO [Example I-22, (E)-7-(3-(2-methylenenaphthyl)-2,5-diketopyrrolidinyl)-N-hydroxyheptamide] | 89.4% ± 0.9% |
|  | 920 ± 50 |  |  | 3020 ± 510 |  | 660 ± 120 |  | 890 ± 50 |  |  | O=C(CCCCCCN1C(=O)C/C(=C\c2cccc(F)c2)C1=O)NO [Example I-28, (E)-7-(3-(3-fluorobenzal)-2,5-diketopyrrolidinyl)-N-hydroxyheptamide] | 85.2% ± 1.6% |
| 19.3 ± 0.11 | 580 ± 30 | 0.99 ± 0.11 | 0.86 ± 0.08 | 1330 ± 230 | 6.6 ± 0.57 | 480 ± 60 | 1.51 ± 0.22 | 1440 ± 100 | 0.77 ± 0.1 | 1.22 ± 0.1 | O=C(CCCCCCN1C(=O)C/C(=C\c2ccccc2Cl)C1=O)NO [Example I-24, (E)-7-(3-(2-chlorobenzal)-2,5-diketopyrrolidinyl)-N-hydroxyheptamide] |  |
| 12.6 ± 0.15 | 350 ± 20 | 0.31 ± 0.05 | 0.47 ± 0.01 | 1390 ± 60 | 3.56 ± 0.1 | 160 ± 40 | 0.63 ± 0.12 | 820 ± 90 | 0.65 ± 0.05 | 1.05 ± 0.1 | COc1ccccc1/C=C1\CC(=O)N(CCCCCCC(=O)NO)C1=O [Example I-31, (E)-7-(3-(2-methoxybenzal)-2,5-diketopyrrolidinyl)-N-hydroxyheptamide] |  |
